# Entries after “also recorded” stand apart in the source; their conditions may differ. Where two headings read alike, the source gives them in different places.
# Tests used:
# [1] = Effect-compartment model of intracellular PBMC concentrations, DERIVE study; type: in vivo, human; settings: for Equilibration half‐life, t 1/2 (plasma to PBMC) / half-life / Kp: PBMC effect compartment, estimate (95% CI); for half-life / Kp: human, oral; for half-life: PBMC, read-out: Equilibration half‐life, t 1/2 (plasma to PBMC) (converted); for Kp: read-out: Pseudo‐partition coefficient, PPC (ratio of drug in PBMC to plasma)
# Method: Pharmacokinetic sampling was conducted over four visits. […] The rifampicin dose was increased to 1200 mg once daily (QD) for 1 week. […] Dolutegravir was maintained for an additional 2 weeks. […] Blood samples were centrifuged and stored at -80 °C prior to shipment and assay at the University of Cape Town, where drug concentrations were measured using high-performance liquid chromatography with tandem mass spectrometry (HPLC MS/MS). […] Atazanavir and ritonavir pharmacokinetic models were separately developed using […] data. We tested one- and two-compartment disposition models with linear elimination, and delayed absorption modelled by a lag time or series of transit compartments. PBMC concentrations were modelled using a hypothetical effect compartment connected to the central compartment of the plasma model. An equilibration half-life (t1/2) and a pseudopartition coefficient (PPC) were used to parameterize the rate of drug entry into the PBMC compartment and its accumulation ratio between the PBMC and plasma, respectively (Figure S1).
# [2] = Final atazanavir model applied to atazanavir-only data (without ritonavir) of the ACTG A5231 study
# Method: Atazanavir was administered with or without rifampicin in three periods: 300 mg BID for 8 days (period 1), 300 mg BID with rifampicin 600 mg QD for 11 days (period 2) and 400 mg BID with rifampicin 600 mg QD for 8 days (period 3).[30] Pharmacokinetic sampling was conducted at the end of each period, with blood collected 15 min predose and at 1‐, 2‐, 3‐, 4‐, 5‐, 6‐, 8‐, 10‐, 12‐, and 24‐h postdose. Plasma samples were analysed at the University of Alabama using HPLC with UV detection (LLOQ 0.025 mg/L).[30]
# The final atazanavir model, developed with DERIVE data, was applied to the A5231 dataset. We made the following adjustment to our model to account for the differences between the two studies.
# All fixed parameters are estimates from DERIVE study population.
# [3] = system: HIV‐1; settings: against HIV‐1; cited from earlier work
# [4] = system: plasma proteins; settings: cited from earlier work
# [5] = Population pharmacokinetic model of plasma atazanavir and ritonavir concentrations, DERIVE study (ATV/r with or without rifampicin); settings: for Fold‐change in CL for ATV/r BID + RIF: ATV/r 300/100 mg BID with rifampicin; for Vd / bioavailability / clearance: human, plasma, oral; for Fold‐change in CL for ATV/r QD + RIF: rifampicin 600 mg QD added to ATV/r; for Effect of increasing rifampicin dose on clearance, bioavailability / pharmacokinetics: rifampicin 1200 mg QD vs 600 mg QD, ATV/r BID
# [6] = in vivo; cited from earlier work
# [7] = design: method as in earlier work; settings: fixed in the previously published model; cited from earlier work
# [8] = clinical; settings: human, in vivo
# [9] = estimate (95% CI), listed as atazanavir
# [10] = Inter compartmental clearance, typical participant 67 kg, fat‐free mass 42 kg, estimate (95% CI)
# [11] = typical participant 67 kg, fat‐free mass 42 kg, estimate (95% CI)
structure (smiles),measurement,setting,value
"COC(=O)N[C@H](C(=O)N[C@@H](Cc1ccccc1)[C@@H](O)CN(Cc1ccc(-c2ccccn2)cc1)NC(=O)[C@@H](NC(=O)OC)C(C)(C)C)C(C)(C)C [Atazanavir, atazanavir]","Equilibration half‐life, t 1/2 (plasma to PBMC)",[1],0.963 (0.546‐1.51) h
same,Effect of rifampicin on PBMC equilibration t 1/2 and PPC (intracellular accumulation),[1]; addition of rifampicin to the regimen,did not affect the ratio of atazanavir concentration between PBMCs and plasma; also recorded: neither of which were affected; also recorded: does not affect the intracellular accumulation of atazanavir
same,half-life,[1],~1 h
same,Kp,[1],0.653
same,Fold-change in CL due to absence of ritonavir,"[2]; A5231 all PK visits vs ATV/r without rifampicin (DERIVE visit 1), estimate (95% CI)",2.13 (1.88 – 2.34) -fold
same,BOV in F,"[2]; human, in vivo",58.3 (46.4 – 73.5) % CV
same,BOV in MTT,"[2]; human, in vivo",48.1 (36.9 – 63.4) % CV
same,Between occasion variability (BOV) in k a,"[2]; human, in vivo",101 (fixed) % CV
same,Between subject variability in clearance,"[2]; human, in vivo",18.8 (13.7 – 24.4) % CV
same,Change in F with rifampicin,"[2]; human, in vivo",-55.3 (-64.0 – -46.2) %
same,Change in ka with rifampicin,"[2]; human, in vivo",-70.8 (fixed) %
same,"Clearance, CL","[2]; human, in vivo",7.55 (fixed) L/h
same,MTT longer in A5231 compared to DERIVE,"[2]; human, in vivo",2.5 ‐fold
same,"Mean absorption transit time, MTT","[2]; human, in vivo",1.38 (1.15 – 1.61) h
same,Reduction in bioavailability when rifampicin was coadministered,"[2]; human, in vivo",55%
same,"Transit compartments, NN","[2]; human, in vivo",10 (fixed) n
same,Vd,"[2]; human, in vivo",77.3 L
same,Volume of distribution (peripheral compartment),"[2]; human, in vivo",48.9 (fixed) L
same,bioavailability,"[2]; human, in vivo",100%
same,clearance,"[2]; human, in vivo",58.5 mL/min
same,Protein‐adjusted in vitro 90% inhibitory concentration (PA‐IC90),[3],0.014 µg/mL
same,Bound to plasma proteins,[4],about 86%
same,Fold‐change in CL for ATV/r BID + RIF,[5]; estimate (95% CI),2.03 (1.82‐2.25) ‐fold
same,Fold‐change in CL for ATV/r BID + RIF,[5]; [9],2 ‐fold
same,"Clearance, CL","[5]; ATV/r 300/100 mg QD without rifampicin, typical participant 67 kg, fat‐free mass 42 kg, typical estimate (95% CI)",7.57 (6.42‐9.06) L/h
same,Effect of doubling ATV/r dosing frequency on bioavailability,[5]; ATV/r BID with standard dose rifampicin,restored atazanavir bioavailability
same,Effect of TDF on clearance and bioavailability,[5]; co-medication tenofovir disoproxil fumarate,affected neither
same,BOV in F,[5]; estimate (95% CI),48.2 (40.7‐53.6) % CV
same,BOV in MTT,[5]; estimate (95% CI),59.4 (49.3‐73.6) % CV
same,Between occasion variability (BOV) in k a,[5]; estimate (95% CI),97.9 (80.8‐125) % CV
same,Between subject variability in clearance,[5]; estimate (95% CI),27.6 (19.7‐36.7) % CV
same,Between visit variability in clearance,[5]; estimate (95% CI),17.5 (14.4‐24.5) % CV
same,Change in F for ATV/r QD + RIF,[5]; estimate (95% CI),−52.5 (−62.5 −41.4) %
same,Change in k a due to RIF,[5]; estimate (95% CI),−67.3 (−76.2 −53.2) %
same,"Mean absorption transit time, MTT",[5]; estimate (95% CI),0.499 (0.429‐0.574) h
same,"Transit compartments, NN",[5]; fixed in the model,10 Fixed n
same,Vd,[5],77.5 L
same,bioavailability,[5],100%
same,clearance,[5]; [10],52.2 mL/min
same,Fold‐change in CL for ATV/r QD + RIF,[5]; estimate (95% CI),3.05 (2.67‐3.45) ‐fold
same,Fold‐change in CL for ATV/r QD + RIF,[5]; [9],3 ‐fold
same,"Effect of increasing rifampicin dose on clearance, bioavailability / pharmacokinetics",[5],no significant effect
same,Reduction of bioavailability by rifampicin,[5]; rifampicin added to standard ATV/r QD regimen,53%
same,Volume of distribution (peripheral compartment),[5]; [11],42.1(26.6‐79.0) L
"CC(C)c1nc(CN(C)C(=O)N[C@H](C(=O)N[C@@H](Cc2ccccc2)C[C@H](O)[C@H](Cc2ccccc2)NC(=O)OCc2cncs2)C(C)C)cs1 [Ritonavir, ritonavir]","Equilibration half‐life, t 1/2 (plasma to PBMC)",[1],1.40 (1.38‐1.63) h
same,half-life,[1],~1 h
same,Kp,[1],1.68
same,Time to steady‐state concentrations,[6],about 2 weeks
same,"Bioavailability decreased to, with rifampicin","[5]; ATV/r QD + rifampicin, relative to ATV/r without rifampicin",31%
same,BOV in F,[5]; estimate (95% CI),55.5 (48.1‐63.8) % CV
same,BOV in MTT,[5]; estimate (95% CI),43.6 (37.7‐51.6) % CV
same,Between occasion variability (BOV) in k a,[5]; estimate (95% CI),82.3 (67.3‐99.1) % CV
same,Between subject variability in clearance,[5]; estimate (95% CI),16.4 (12.3‐21.8) % CV
same,Change in F for ATV/r BID + RIF,[5]; estimate (95% CI),−33.3 (−46.6 −10.9) %
same,Change in F for ATV/r QD + RIF,[5]; estimate (95% CI),−68.8 (−75.2 −58.5) %
same,"Mean absorption transit time, MTT",[5]; estimate (95% CI),0.483 (0.428‐0.545) h
same,"Transit compartments, NN",[5]; estimate (95% CI),12.3 (6.64‐17.7) n
same,Vd,[5],55.4 L
same,bioavailability,[5],100%
same,clearance,"[5]; Clearance, CL, ATV/r 300/100 mg QD without rifampicin, typical participant 67 kg, fat‐free mass 42 kg, typical estimate (95% CI)",161 mL/min
same,clearance,[5]; [10],26 mL/min
same,"Effect of increasing rifampicin dose on clearance, bioavailability / pharmacokinetics",[5],no further effect
same,Volume of distribution (peripheral compartment),[5]; [11],70.1 (39.7‐125) L
CO[C@H]1/C=C/O[C@@]2(C)Oc3c(C)c(O)c4c(O)c(c(/C=N/N5CCN(C)CC5)c(O)c4c3C2=O)NC(=O)/C(C)=C\C=C\[C@H](C)[C@H](O)[C@@H](C)[C@@H](O)[C@@H](C)[C@H](OC(C)=O)[C@@H]1C [rifampicin],BOV in MTT,estimate (95% CI),46.8 (40.0 – 56.8) % CV
same,BOV in ka,estimate (95% CI),104 (85.3 – 136) % CV
same,Between occasion variability (BOV) in F,estimate (95% CI),22.0 (17.9 – 26.3) % CV
same,Between subject variability in clearance,estimate (95% CI),27.7 (22.1 – 35.2) % CV
same,"Mean absorption transit time, MTT",estimate (95% CI),0.502 (0.447 – 0.558) h
same,"Transit compartments, NN",estimate (95% CI),20.3 (15.8 – 25.9) n
same,"Bioavailability, F","human, in vivo",1 (fixed) fraction
same,"Unbound fraction of rifampicin, fu",[7],0.2 (fixed) fraction
same,Km,[8],4.9 µg/mL
same,Vd,[8],44.7 L
same,clearance,[8],550 mL/min
